Results as given in the Kinase Knowledgebase extract (Sharma et al. 2016).

Legend:
[1] = biological target: EGFR (human) (UniProt P00533); conditions: A431
[2] = biological target: EGFR (human) (UniProt P00533); conditions: a431

Chain of EGFR (human) (P00533 whole entry, looked up): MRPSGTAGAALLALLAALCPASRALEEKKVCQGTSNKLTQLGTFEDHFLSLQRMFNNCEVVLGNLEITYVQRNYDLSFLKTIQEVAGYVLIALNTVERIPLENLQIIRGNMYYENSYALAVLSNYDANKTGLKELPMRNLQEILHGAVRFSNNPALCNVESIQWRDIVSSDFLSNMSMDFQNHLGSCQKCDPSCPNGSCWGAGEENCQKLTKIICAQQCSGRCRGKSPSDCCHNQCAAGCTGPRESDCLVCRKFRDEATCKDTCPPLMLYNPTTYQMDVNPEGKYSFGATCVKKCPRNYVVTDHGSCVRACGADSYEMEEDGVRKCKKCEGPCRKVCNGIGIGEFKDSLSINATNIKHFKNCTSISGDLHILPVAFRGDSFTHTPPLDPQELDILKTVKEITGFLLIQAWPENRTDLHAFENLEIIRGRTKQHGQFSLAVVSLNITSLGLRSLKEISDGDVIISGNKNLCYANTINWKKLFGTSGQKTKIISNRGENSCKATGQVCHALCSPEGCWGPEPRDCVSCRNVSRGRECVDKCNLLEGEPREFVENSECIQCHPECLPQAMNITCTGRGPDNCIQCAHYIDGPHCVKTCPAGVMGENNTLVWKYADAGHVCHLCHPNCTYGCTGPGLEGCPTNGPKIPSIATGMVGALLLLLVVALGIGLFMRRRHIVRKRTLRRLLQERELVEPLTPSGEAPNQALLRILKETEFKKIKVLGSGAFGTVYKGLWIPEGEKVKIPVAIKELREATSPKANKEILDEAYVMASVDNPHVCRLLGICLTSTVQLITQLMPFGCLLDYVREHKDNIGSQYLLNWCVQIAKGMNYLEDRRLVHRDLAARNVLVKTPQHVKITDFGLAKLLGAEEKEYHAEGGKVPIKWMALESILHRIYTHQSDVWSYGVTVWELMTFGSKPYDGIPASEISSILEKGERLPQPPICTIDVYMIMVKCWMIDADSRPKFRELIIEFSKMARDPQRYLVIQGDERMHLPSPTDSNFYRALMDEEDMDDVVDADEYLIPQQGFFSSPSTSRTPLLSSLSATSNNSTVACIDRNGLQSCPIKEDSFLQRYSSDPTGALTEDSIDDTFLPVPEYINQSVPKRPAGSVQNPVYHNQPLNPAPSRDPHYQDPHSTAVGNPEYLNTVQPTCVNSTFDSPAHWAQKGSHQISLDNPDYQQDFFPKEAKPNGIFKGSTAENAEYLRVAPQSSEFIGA

| IC50 [1] [µM] | IC50 [2] [µM] | Structure (SMILES) |
| --- | --- | --- |
| 10 | 29 | Brc1ccc2ncnc(Nc3ccc(OCc4ccccc4)cc3)c2c1 |
| > 50 | > 50 | COc1cc2nccc(Nc3ccc(OCc4ccccc4)cc3)c2cc1OC |
| > 30 | 50 | Clc1ccc2c(Nc3ccc(OCc4ccccc4)cc3)ncnc2c1 |
| > 50 | > 50 | c1csc(COc2ccc(Nc3ncnc4ccccc34)cc2)c1 |
| 15 | > 50 | COc1cc2ncnc(Nc3ccc(Nc4ccccc4)cc3)c2cc1OC |
| 65 | > 50 | COc1ccc2c(Nc3ccc(OCc4ccccc4)cc3)ncnc2c1 |
| 50 | > 50 | COc1cc2nccc(Nc3ccc(N4C(=O)c5ccc(Cl)cc5C4=O)c(C)c3)c2cc1OC |
| 1.6 | 6.9 | COc1cc2ncnc(Nc3ccc(OCc4ccccc4)c(OC)c3)c2cc1OC |
| > 50 | 31 | c1ccc(Oc2ccc(Nc3ccnc4ccccc34)cc2)cc1 |
| > 30 | > 50 | Cc1cc2ncnc(Nc3ccc(OCc4ccccc4)cc3)c2cc1C |
| > 50 | 50 | c1ccc(COc2cccc(Nc3ncnc4ccccc34)c2)cc1 |
| 15 | 12 | COc1ccc2ncnc(Nc3ccc(OCc4ccccc4)cc3)c2c1 |
| > 50 | > 50 | c1ccc(COc2ccc(Nc3ccnc4ccccc34)cc2)cc1 |
| > 50 | > 50 | c1ccc(COc2ccc(Oc3ncnc4ccccc34)cc2)cc1 |
| 8 | 30 | COc1cc2ncnc(Nc3ccc(Oc4ccccc4)cc3)c2cc1OC |
| > 50 | > 50 | O=[N+]([O-])c1ccc2ncnc(Nc3ccc(Oc4ccccc4)cc3)c2c1 |
| 11 | 28 | COc1cccc2ncnc(Nc3ccc(OCc4ccccc4)cc3)c12 |
| 5 | 50 | COc1cc2ncnc(Nc3ccc(OCc4ccccc4)cc3)c2cc1OC |
